How the values were obtained:
[1] = system: WT1 mRNA; conditions: mWT1-C1498, compared with DAC treatment; cited from earlier work
[2] = system: murine WT1-transfected C1498 (mWT1-C1498); conditions: increasing doses; cited from earlier work
[3] = system: WT1 mRNA; conditions: human MIAPaCa2 PC cells; cited from earlier work
[4] = system: WT1 mRNA; conditions: GEM-treated MIAPaCa2-bearing SCID mice; cited from earlier work
[5] = system: allogeneic T cells; experiment: Mixed Lymphocyte Reaction, dendritic cells added to allogeneic T cells, tritiated thymidine; format: cell-based; conditions: cannabidiol 1 and 2 micromolar added to dendritic cells; 40,000 allogeneic T cells; 96 hours culture; FIG. 1
Description: (§1) Dendritic cells where added to allogeneic T cells in 96 well plates, wherein allogeneic T cells where added at 40,000 cells per plate and the indicated number of dendritic cells added. Culture was performed for 96 hours with tritiated thymidine added at the last 12 hours of culture at a concentration of 1 microcurie per well. Black bars indicate no cannabidiol added to dendritic cells, striped bars indicate 1 micro Molar and white indicate 2 micromolar. […] Results are shown in graph, FIG. 1.

[6] = system: allogeneic T cells; experiment: Mixed Lymphocyte Reaction with dendritic cells silenced for NR2F6; format: cell-based; conditions: increased amounts of cannabidiol added to dendritic cells silenced for NR2F6; FIG. 2
Description: as §1
MLR was performed as in example 1. All cells where silenced for NR2F6. An increase in allostimulatory activity was observed. Results are shown in graph, FIG. 2.

## Nc1ncn([C@@H]2O[C@H](CO)[C@@H](O)[C@H]2O)c(=O)n1 [AZA, azacitidine]
[1]
  up-regulation of WT1 mRNA: induced up-regulation of mRNA, but not to the same degree as with DAC treatment
[2]
  number of viable cells: decreased the number of viable cells in a dose- or time-dependent manner

## Nc1ccn([C@@H]2O[C@H](CO)[C@@H](O)C2(F)F)c(=O)n1 [GEM, gemcitabine]
[3]
  WT1 mRNA levels: enhanced WT1 mRNA levels
[4]
  WT1 mRNA in tumor tissue: increase in WT1 mRNA

## C=C(C)[C@@H]1CCC(C)=C[C@H]1c1c(O)cc(CCCCC)cc1O [cannabidiol]
[5]
  T cell activation in Mixed Lymphocyte Reaction: dose dependent suppression of T cell activation
[6]
  allostimulatory activity in MLR: dose dependent increase in allostimulatory activity

Source: US20210403866A1, “ENHANCED DENDRITIC CELL IMMUNE ACTIVATION BY COMBINED INHIBITION OF NR2F6 WITH CANNIBIDIOL” (Regen Biopharma, Inc., priority 2019, published 2021)
